Series [1] addresses 5-HT6R (Homo sapiens, UniProt P50406). As to the kind of experiment: Radioligand binding assay, [3H]-LSD displacement.
The target in series [2] is T1, D2R (Homo sapiens, UniProt P14416). Description: Radioligand binding assay, [3H]-raclopride displacement.
For series [3], the system named is Male CD1 mice. As to the kind of experiment: MK-801-induced hyperactivity in mice. The class given is in vivo. To be noted: i.p.; for reversal of MK-801-elevated activity: MK-801 0.35 mg/kg, 15: 0.5, 1, 3 mg/kg, 18: 0.05-3 mg/kg. As for the experimental part: Animals. Male CD1 mice (Charles River, Germany) weighing 20–25 g at the time of arrival were used in behavioral experiments. Animals were kept under standard laboratory conditions (12:12 light: dark cycle, 22 ± 2 °C) with free access to food and water. Animal welfare has been regularly controlled by a veterinarian and animal welfare committee. After two weeks of acclimatization and handling, the experiments began. Experimental groups consisted of four to 10 animals, depending on the procedure. Drugs were administered intraperitoneally (i.p.) at a volume of 10 mL/kg. Experimental assessments were performed by an observer who was blinded to the treatment conditions. All procedures were conducted in accordance with the European Communities Council Directive of 22 September 2010 (2010/63/EU) and Polish legislation acts concerning animal experimentation and were approved by the II Local Ethics Committee by the Maj Institute of Pharmacology, Polish Academy of Sciences in Krakow (272/2019).
Drugs. MK-801 was purchased from Tocris Bioscience, Bristol, UK. MK-801 was dissolved in 0.9% NaCl. Compounds 15 and 18 were dissolved in 0.9% NaCl. All compounds were administered intraperitoneally (i.p.) in a volume of 10 mL/kg. Vehicle-treated animals received appropriate solvents. Vehicle was administered to animals in any case when drug administration was omitted (e.g., control or MK-801-treated groups).
The locomotor activity was recorded individually for each animal in locomotor activity cages (according to Rorick-Kehn et al., 2007a,b), with modifications (Wieronska et al., 2012). The mice were placed individually into activity cages (13 × 23 × 15 cm; Opto-M3; Columbus Instruments) for an acclimatization period of 30 min; then they were injected i.p. with compound 15 (0.5, 1, 3 mg/kg) or compound 18 (0.05, 0.1, 0.5, 1, 3 mg/kg) and placed again in the same cages. After 30 min, all of the mice were injected i.p. with MK-801 at 0.35 mg/kg and once again placed in the same cage. From then on, the ambulation scores were counted for 60 min. All of the groups were compared with the MK-801 control group. […]

Series [4] can be described thus: Metabolic stability, incubation with mouse liver microsomes. The class given is in vitro ADME. To be noted: MLMs, 50 µM, 2 h. As for the experimental part:
The murine liver microsomes (MLMs) were purchased from Sigma-Aldrich (St. Louis, MO, USA). To determine metabolic pathways, the tested compounds (50 µM) were incubated with 100 mM Tris-HCl buffer at 37 °C with MLMs (1 mg/mL) and NADPH Regeneration System for 2 h. Reactions were quenched with cold, pure methanol and mixtures were centrifuged 14,000 g for 15 min. The supernatants were analyzed using LCMS. The additional MS ion fragmentation of the product and the substrate were performed to determine the most probable structure of the metabolite.

In series [5] the test system is HepG2 cell line. Description: Hepatotoxicity assay, HepG2 viability. In kind it is cell-based. As to conditions: 1 μM, 72 h. How it is done:
To estimate the hepatotoxicity of compounds, the hepatoma HepG2 (ATCC® HB-8065TM) cell line was used according to previously described protocols. The CellTiter 96® AQueous Non-Radioactive Cell Proliferation Assay was obtained from Promega (Madison, WI, USA). The compounds were tested in quadruplicate at four concentrations (1–100 µM) for 72 h.

The target of series [6] is T2, CYP3A4 (Homo sapiens, UniProt P08684).
T2 construct: purchased Promega (Madison, WI, USA)
T2 sequence (P08684 whole entry): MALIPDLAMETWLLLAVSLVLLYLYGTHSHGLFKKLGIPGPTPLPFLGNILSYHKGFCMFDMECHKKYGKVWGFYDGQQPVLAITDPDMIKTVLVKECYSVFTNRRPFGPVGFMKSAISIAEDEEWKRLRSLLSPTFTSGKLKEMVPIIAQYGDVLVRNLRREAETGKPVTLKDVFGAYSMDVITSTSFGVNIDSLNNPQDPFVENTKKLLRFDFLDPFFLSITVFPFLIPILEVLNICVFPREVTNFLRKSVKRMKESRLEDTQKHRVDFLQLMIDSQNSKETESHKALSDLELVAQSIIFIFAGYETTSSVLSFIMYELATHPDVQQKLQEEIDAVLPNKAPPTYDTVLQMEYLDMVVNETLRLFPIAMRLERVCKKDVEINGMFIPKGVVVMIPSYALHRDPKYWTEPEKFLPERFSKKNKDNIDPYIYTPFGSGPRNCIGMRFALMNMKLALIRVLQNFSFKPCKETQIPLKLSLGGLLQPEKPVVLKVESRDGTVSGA
As to the kind of experiment: CYP3A4 P450-Glo luminescent assay. The class given is in vitro ADME. To be noted: compared to ketoconazole; 0.01 to 25 µM. As for the experimental part: The experiments were provided using commercially available luminescent CYP3A4 P450-Glo™ and CYP2D6 P450-Glo™ tests purchased from Promega (Madison, WI, USA). The enzymatic reactions were conducted in polystyrene, flat-bottom Nunc™ MicroWell™ 96-well microplates (Thermo Scientific, Waltham, MA, USA). The assays were carried out according to the procedures provided by the manufacturer, as described previously. Compounds were tested in triplicate at the final concentrations in a range from 0.01 to 25 µM for both isoforms of CYP450. The references of CYP3A4 and CYP2D6 inhibitors (ketoconazole and quinidine, respectively) were tested in a range from 0.001 to 10 µM. Tested compounds were incubated in 100 mM Tris-HCl buffer separately with CYP3A4 and CYP2D6 membranes and the NADPH Regeneration System for 30 min at room temperature in triplicate. The bioluminescent signal was measured after the addition of the Luciferin Detection Reagent by using a microplate reader EnSpire PerkinElmer (Waltham, MA, USA). Both reagents (NADPH Regeneration System and Luciferin Detection Reagent) were purchased from Promega (Madison, WI, USA).

Series [7] deals with T1, D2R. Description: D2R functional assay, antagonist mode (cAMP, HEK293 cells). In kind it is cell-based. Details: expressed in transfected cells. As for the experimental part: The supernatant was aspirated, and the cell pellet was resuspended in stimulation buffer (1 × HBSS, 5 mM HEPES, 0.5 mM IBMX, 0.1% BSA).
The functional properties of compounds were evaluated using the LANCE Ultra cAMP Detection Kit (PerkinElmer). D2 receptors in HEK293 cells are coupled to Gi subtype and decreased cAMP production. […] Each compound was tested in triplicate at eight concentrations (10^−11–10^−4 M).
For quantification of cAMP levels, cells (5 µL) were incubated with 5 µL mixture of compounds (tested ligand and forskolin with 100 nM quinpirole for antagonist binding mode) for 30 min at room temperature in 384-well white opaque microtiter plate (PerkinElmer). After incubation, the reaction was stopped and cells were lysed by the addition of 10 µL working solution (5 µL Eu-cAMP and 5 µL ULight-anti-cAMP). The assay plate was incubated for 1 h at room temperature. Time-resolved fluorescence resonance energy transfer (TR-FRET) signal was detected by an Infinite M1000 Pro (Tecan) using instrument settings from the LANCE Ultra cAMP Detection Kit manual.

The values that follow come from paper PMC8347595, “N-Skatyltryptamines—Dual 5-HT6R/D2R Ligands with Antipsychotic and Procognitive Potential” (Molecules, 2021).

SMILES strings stand for the structures. Read-outs that look alike come from different tables or passages of the source.

T1 sequence (P14416 whole entry): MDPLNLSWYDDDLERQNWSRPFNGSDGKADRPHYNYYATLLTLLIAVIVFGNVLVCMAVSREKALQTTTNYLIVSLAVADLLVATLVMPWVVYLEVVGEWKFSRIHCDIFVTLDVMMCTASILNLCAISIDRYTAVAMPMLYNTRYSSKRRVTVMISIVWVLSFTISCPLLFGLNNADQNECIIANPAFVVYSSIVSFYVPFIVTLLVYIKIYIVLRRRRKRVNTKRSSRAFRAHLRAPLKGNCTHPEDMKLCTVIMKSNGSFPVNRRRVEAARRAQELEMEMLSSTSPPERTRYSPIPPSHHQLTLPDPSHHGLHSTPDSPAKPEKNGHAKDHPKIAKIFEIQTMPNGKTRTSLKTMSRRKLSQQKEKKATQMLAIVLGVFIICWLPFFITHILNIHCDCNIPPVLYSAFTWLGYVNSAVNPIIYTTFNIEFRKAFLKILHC
Chain of 5-HT6R (P50406 whole entry): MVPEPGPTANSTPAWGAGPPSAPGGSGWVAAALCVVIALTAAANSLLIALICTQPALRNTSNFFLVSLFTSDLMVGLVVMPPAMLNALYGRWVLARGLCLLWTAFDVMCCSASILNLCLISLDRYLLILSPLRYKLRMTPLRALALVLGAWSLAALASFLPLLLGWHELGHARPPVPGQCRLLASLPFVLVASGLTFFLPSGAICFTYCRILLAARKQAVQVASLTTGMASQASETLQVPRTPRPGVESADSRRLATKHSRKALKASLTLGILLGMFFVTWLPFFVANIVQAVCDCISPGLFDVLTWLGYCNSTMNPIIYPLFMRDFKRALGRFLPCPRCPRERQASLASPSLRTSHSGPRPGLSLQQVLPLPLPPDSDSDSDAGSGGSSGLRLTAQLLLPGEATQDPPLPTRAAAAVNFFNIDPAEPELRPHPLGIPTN

For `Brc1ccc2c(CNCCc3c[nH]c4ccccc34)c[nH]c2c1` [Compound 15], the Ki (in general, the dissociation constant of the complex between target and ligand, obtained from inhibition or displacement) was 0.102 µM in series [1] (Ki 5-HT6, Figure 8); 0.102 µM in series [1] (pKi 5-HT6, Table 1); 0.29 µM in series [2] (Ki D2, Figure 8); 0.288 µM in series [2] (pKi D2, Table 1). In addition, the “exacerbation of MK-801 hyperactivity” value in series [3] (3 mg/kg) is given as “not statistically significant”. Also, in series [3], the “reversal of MK-801-elevated activity” value is given as “did not reverse the locomotor activity elevated by the administration of MK-801”. Besides, in series [4], the “Metabolic Pathway, metabolite M1” value is reported as “hydroxylation hydroxylation”. In addition, in series [4], the “Metabolic Pathway, metabolite M2” value is “hydroxylation hydroxylation”. Moreover, the “effect on HepG2 proliferation in words” value in series [5] is recorded as “a proliferative effect was observed, but it was not statistically significant”. For the same molecule, the “effect on CYP3A4 activity” value in series [6] is “only slightly inhibited”. For the same molecule, in series [7] (antagonistic mode, 100 nM quinpirole, read-out: D2 Kb), the Kb (in general, the equilibrium dissociation constant of an antagonist, usually derived from a functional assay) is 0.109 µM. Also, in series [7] (read-out: EC50 (D2 receptor, antagonistic function)), the EC50 (in general, the midpoint of the concentration-response curve) was found to be 0.109 µM.
With `Brc1cccc2c(CNCCc3c[nH]c4ccccc34)c[nH]c12` [Compound 18], the Ki in series [1] (Ki 5-HT6, Figure 8) is 0.449 µM; in series [1] (pKi 5-HT6, Table 1), 0.447 µM; in series [2] (Ki D2, Figure 8) it was 0.055 µM; in series [2] (pKi D2, Table 1) it was 0.055 µM. Besides, the “reversal of MK-801-elevated activity” value in series [3] is given as “did not reverse the locomotor activity elevated by the administration of MK-801”. Further, the “Metabolic Pathway, metabolite M1” value in series [4] was “hydroxylation hydroxylation”. In addition, the “Metabolic Pathway, metabolite M2” value in series [4] is “hydroxylation hydroxylation”. Further, the “effect on HepG2 proliferation in words” value in series [5] is on record as “a proliferative effect was observed, but it was not statistically significant”. Also, in series [6], the “effect on CYP3A4 activity” value is “only slightly inhibited”. This molecule registered a Kb in series [7] of 0.167 µM.
